Literature values, collected in patent publication US20120015404A1, “GENE CLUSTER FOR THU[…]” (HUAZHONG AGRICULTURAL UNIVERSITY, priority 2009, published 2012).

Tests used:
[1] = tested on: Helicoverpa armigera
[2] = tested on: larvae of housefly; settings: larvae of housefly take in thuringiensin
[3] = tested on: larvae of Galleria mellonella
[4] = tested on: Aedes aegypti
[5] = tested on: Phaedon cochleariae
[6] = tested on: Plutella maculipennis
[7] = tested on: Pieris brassicae
[8] = tested on: Anastrepha ludens; settings: third stage larvae
[9] = tested on: A. obliqua; settings: third stage larvae
[10] = tested on: A. serpentine; settings: third stage larvae
[11] = purified thuringiensin
[12] = low concentration, Helicoverpa armigera

Row | SMILES | acute lethal effect [1, 12] | effect on growth and development [1, 12] | weight of the neonate larvae ([1]; lowest testing concentration, 12 days) | half lethal dose [2] | toxicity relative to DDT ([3]; injected larvae of Galleria mellonella, times of that of DDT) | half lethal dose ([3]; larvae of Galleria mellonella, injected) | toxicity compared with E605 [4] | activity compared with E605 [5] | activity compared with E605 [6] | activity compared with E605 [7] | LC50 [8] | LC50 [9] | LC50 [10] | mutagenicity [11]
1 | Nc1ncnc2c1ncn2[C@@H]1O[C@H](CO[C@H]2[C@H](O)[C@@H](O)[C@@H](O[C@@H](C(=O)O)[C@H](O)[C@H](OP(=O)(O)O)[C@H](O)C(=O)O)O[C@@H]2CO)[C@@H](O)[C@H]1O [thuringiensin A] | no acute lethal effect | unrecoverable inhibiting effect | no apparent increase | – | – | – | – | – | – | – | – | – | – | –
2 | Nc1ncnc2c1ncn2[C@@H]1O[C@H](CO[C@H]2[C@H](O)[C@@H](O)[C@@H](O[C@@H](C(=O)O)[C@H](O)[C@H](OP(=O)(O)O)[C@H](O)C(=O)O)O[C@@H]2CO)[C@@H](O)[C@H]1O [thuringiensin] | – | – | – | 0.5 µg/mL | 1000 times | 0.005 µg/g | less than E605 | more than E605 | more than E605 | more than E605 | 0.641 μg/cm^2 | 0.512 μg/cm^2 | 0.408 μg/cm^2 | no mutagenicity
